From patent US20230075822A1, “USE OF CASTALAGIN OR ANALOGS THEREOF FOR ANTI-CANCER EFFICACY AND TO INCREASE THE RESPONSE TO IMMUNE CHECKPOINT INHIBITORS” (THE ROYAL INSTITUTION FOR THE ADVANCEMENT OF …, priority 2020, published 2023)

Key:
[1] = test system: CD8^+ T cells; assay: Flow cytometry immune profiling of tumor and spleen, E0771 tumor model; assay type: in vivo, C57BL/6 mice; conditions: αPD-1 with or without treatment
Protocol: FIGS. 7A-C are graphs showing the results of immune cell profiling by flow cytometry in the murine MCA-205 (FIGS. 7A-B) or E0771 (FIG. 7C) tumor model treated with anti-PD-1 and/or CC. The tumors and the spleens were harvested 9 days or 19 days after the first injection of anti-PD-1 mAb into mice bearing MCA-205 or E0771 tumors, respectively. Excised tumors were cut into small pieces and digested in RPMI medium containing Liberase 25 μg/mL (Roche) and DNase1 at 150 Ul/mL (Roche) for 30 minutes at 37° C. and then crushed and filtered twice using 100 and 70 μm cell strainers (Becton & Dickinson). Spleens were crushed in RPMI medium and subsequently filtered through a 100 μm cell strainer. Two million tumor cells or splenocytes were pre-incubated with purified anti-mouse CD16/CD32 (clone 93; eBioscience) for 30 minutes at 4° C., before membrane staining (CD45, CD3, CD4, CD8, PD1, PDL1, ICOS, CXCR3, CCR9, CD45RB, CD62L, CD44). For intracellular staining, the Foxp3 staining kit (eBioscience) was used. Dead cells were excluded using the Live/Dead Fixable aqua blue dead cell stain kit (Life Technologies). […] FIG. 7C is a graph showing the activation of intratumoral CD8^+ T cells (as assessed by MFI of ICOS^+CD8^+ T cells by flow cytometry) in TILs in the E0771 tumor model post-treatment with CC +/-αPD-1. […]

[2] = test system: CD8^+/Foxp3^+CD4^+ T cells; assay: Immunofluorescence staining (CD4, CD8, Foxp3) of MCA-205 tumors; assay type: in vivo, C57BL/6 mice; conditions: castalagin/IsoPD-1 relative to Water/IsoPD-1
Excerpt: FIG. 10B Representative images for the CD4, CD8 and Foxp3 immunofluorescence staining of tumors in both water/ISoPD-1 and castalagin/IsoPD-1 groups. FIG. 10C Box plot for the ratio CD8^+/Foxp3^+CD4^+ in tumor in (n=8/group) obtained with immunofluorescence staining. *p<0.05. Immunofluorescence staining. Murine tumors preserved in optimal cutting temperature (OCT) compound were cut (5 μm-thick sections) and adhered to microscope slides and stored at −80C°. Upon the start of the experiment, slides were air dried and washed with cold acetone. To prevent non-specific binding to biotin, the Endogenous Avidin Biotin Blocking kit (ThermoFisher) was used. Additionally, tissues were incubated with 10% donkey serum in order to reduce background staining. Primary antibodies used are anti-CD4, anti-CD8, anti-Foxp3. Donkey anti-goat and donkey anti-rat conjugated to AF-488 were used as secondary antibodies and slides were incubated with Cy3-Streptavidin to detect biotinylated antibodies. Nuclei were visualized by counterstaining with DAPI (ThermoFisher). Images were generated using the whole slide scanner Olympus BX61VS (20× 0.75NA objective with a resolution of […]). The images were analysed using Visiomorph software (Visiopharm).

O=C1OC[C@H]2OC(=O)c3cc(O)c(O)c(O)c3-c3c(O)c(O)c(O)c4c3C(=O)O[C@H]([C@H]3OC(=O)c5c-4c(O)c(O)c(O)c5[C@@H]3O)[C@@H]2OC(=O)c2cc(O)c(O)c(O)c2-c2c1cc(O)c(O)c2O [castalagin, Castalagin]
frequency of memory CD8^+ T cells (CD44^HighCD62L^−CD8^+) ([1]; splenocytes): increase in frequency of memory CD8^+ T cells | frequency of memory CD8^+ T cells (CD44^HighCD62L^−CD8^+) ([1]; tumor microenvironment): increase in frequency of memory CD8^+ T cells | ratio CD8^+/Foxp3^+ CD4^+ in tumor (immunofluorescence) [2]: increase of the ratio CD8^+/Foxp3^+ CD4^+
